In patent publication US20030119748A1 (Idun Pharmaceuticals, Inc., priority 1996, published 2003):
Where two headings read alike, the source gives them in different places.

Key:
Format in all cases: biochemical
[1] = molecular target: T1, mICE (Mus musculus, UniProt P29452); experiment: Fluorescence enzyme assay, IC50 for ICE (Example 1A)
T1 sequence (P29452 119-402): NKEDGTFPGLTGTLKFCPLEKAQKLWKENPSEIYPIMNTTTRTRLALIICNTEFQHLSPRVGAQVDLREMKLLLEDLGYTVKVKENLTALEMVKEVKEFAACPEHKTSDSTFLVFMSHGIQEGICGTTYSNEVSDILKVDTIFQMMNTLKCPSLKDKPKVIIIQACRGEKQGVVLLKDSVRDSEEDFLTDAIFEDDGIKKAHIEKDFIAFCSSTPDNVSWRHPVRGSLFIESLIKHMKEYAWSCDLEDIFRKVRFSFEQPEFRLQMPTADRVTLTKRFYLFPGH
Experimental: (§1) Fluorescence enzyme assays detecting the activity of the compounds of Formula 1 utilizing the recombinant ICE and CPP32 enzymes were performed essentially according to Thomberry et al. (Nature, 356:768:774 (1992)) and Nicholson et al. (Nature, 376:37-43 (1995)) respectively, (herein incorporated by reference) in 96 well microtiter plates. The substrate for these assays was Acetyl-Tyr-Val-Ala-Asp-amino-4-methylcoumarin (AMC) for the ICE assay and Acetyl-Asp-Glu-Val-Asp-amino-4-methylcoumarin for the CPP32 and Mch5 assays. Enzyme reactions were run in ICE buffer (25 mM HEPES, 1 mM EDTA, 0.1% CHAPS, 10% sucrose, pH 7.5) containing 2 mM DTT at room temperature in duplicate. The assays were performed by mixing the following components:
(§2) 50 μl of either ICE, Mch2, Mch5 or CPP32 (18.8, 38, 8.1 and 0.153 nM concentrations, respectively) enzyme in ICE buffer containing either 8.0 (ICE, Mch2, CPP32) or 20 (Mch5) mM DTT;
(§3) 50 μl of either the compound of Formula 1 or ICE buffer (control); and
(§4) 100 μl of 20 μM substrate.
(§5) The enzyme and the compound of Formula 1 to be assayed were preincubated in the microtitre plate wells for 30 minutes at room temperature prior to the addition of substrate to initiate the reaction. Fluorescent AMC product formation was monitored for one hour at room temperature by measuring the fluorescence emission at 460 nm using an excitation wavelength of 360 nm. The fluorescence change in duplicate (control) wells were averaged and the mean values were plotted as a function of inhibitor concentration to determine the inhibitor concentration producing 50% inhibition (IC50).

[2] = molecular target: T2, CPP32 (Homo sapiens, UniProt P42574); experiment: Fluorescence enzyme assay, IC50 for CPP32 (Example 1A); conditions: Table 1, Formula A; 30 min preincubation, room temperature
T2 sequence (P42574 29-277): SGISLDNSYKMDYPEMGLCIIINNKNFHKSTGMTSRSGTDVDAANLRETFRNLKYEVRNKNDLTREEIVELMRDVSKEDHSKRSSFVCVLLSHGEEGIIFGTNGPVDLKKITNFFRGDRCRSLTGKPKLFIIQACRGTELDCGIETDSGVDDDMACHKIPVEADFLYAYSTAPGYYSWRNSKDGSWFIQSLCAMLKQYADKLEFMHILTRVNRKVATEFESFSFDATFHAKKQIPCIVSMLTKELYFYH
Experimental: as §1, §2, §3, §4, §5

[3] = molecular target: T1, mICE; experiment: Dissociation constant Ki for irreversible inhibitors, continuous assay (Example 1B); conditions: compounds of Formula B and Formula C, procedure of Example 1B
Description: B. Determination of the Dissociation Constant K1 and Irreversible Rate Constant k3 for Irreversible Inhibitors
For the irreversible inhibition of a ICE/ced-3 Family Protease enzyme with a competitive irreversible inhibitor; using the model represented by the following formulas: [drawing 4]
The product formation at time t may be expressed as: [drawing 5]
where E, I, EI, and E-I denote the active enzyme, inhibitor, non-covalent enzyme-inhibitor complex and covalent enzyme-inhibitor adduct, respectively. The K1 value is the overall dissociation constant of reversible binding steps, and k3 is the irreversible rate constant. The [S] and Ks values are the substrate concentration and the dissociation constant of the substrate bound to the enzyme, respectively. [E]^T is the total enzyme concentration.
The above equations were used to determine the K1 and k3 values of a given inhibitor bound to a ICE/ced-3 family protease. Thus, a continuous assay was run for sixty minutes at various concentrations of the inhibitor and the substrate. The assay was formulated essentially the same as described in Example 1A above, except that the reaction was initiated by adding the enzyme to the substrate-inhibitor mixture. The K1 and k3 values were obtained by simulating the product AMC formation as a function of time according to Equation 1. The reference compound for this assay was Cbz-ValAlaAsp-CH2F.

[4] = Table 1, Formula A, 30 min preincubation, room temperature, read-out: mICE IC50

Row | Compound | IC50 ([1]; read-out: IC50 (mICE)) | IC50 [1, 4] | IC50 [2] | other results
1 | Cn1c(C(=O)NCC(=O)N[C@H](C=O)CC(=O)O)cc2ccccc21 [Example 21, (3S)-3-[(1-Methylindole-2-Carbonyl)Glycinyl]-Amino-4-Oxo-Butanoic Acid] | – | 34700 nM | > 50000 nM | –
2 | Cc1c(C(=O)NC(C(=O)NC(CC(=O)O)C(=O)COc2ccccc2C(N)=O)C(C)C)n(C)c2ccccc12 (stereo not drawn) [Example 74, N-(1,3-Dimethyl-indole-2-carbonyl)-Valinyl-3-amino-5-(2-aminocarbonyl-1-phenyl)oxy-4-oxo-pentanoic Acid] | – | – | – | Ki [3]: < 1000 nM
3 | CC(C)[C@H](NC(=O)c1cc2ccccc2n1CC(=O)O)C(=O)NC(CC(=O)O)C(=O)CF (stereo partly drawn) [Example 58, N-[(1-(Carboxymethyl)Indole-2-Carbonyl)Valinyl]-3-Amino-4-Oxo-5-Fluoropentanoic Acid] | – | – | – | Ki [3]: < 1000 nM
4 | Cn1c(C(=O)N2CCC[C@H]2C(=O)N[C@H](C=O)CC(=O)O)cc2ccccc21 [Example 7, (3S)-3-[(1-Methylindole-2-Carbonyl)Prolinyl]Amino-4-Oxo-Butanoic Acid] | – | 11700 nM | > 50000 nM | –
5 | C[C@H](NC(=O)c1cc2ccccc2n1Cc1ccccc1)C(=O)N[C@H](C=O)CC(=O)O [Example 24, (3S)-3-[(1-Benzylindole-2-Carbonyl)Alaninyl]Amino-4-Oxo-Butanoic Acid] | – | 393 nM | > 50000 nM | –
6 | C[C@H](NC(=O)c1cc2ccccc2n1C)C(=O)N[C@H](C=O)CC(=O)O [Example 4, (3S)-3-[(1-Methylindole-2-Carbonyl)Alaninyl]Amino-4-Oxobutanoic Acid] | – | 177 nM | > 10000 nM | –
7 | CC(C)Cc1c(C(=O)NC(CC2CCCCC2)C(=O)NC(CC(=O)O)C(=O)COC(=O)c2c(Cl)cccc2Cl)n(C)c2ccccc12 (stereo not drawn) [Example 99] | < 1000 nM | – | – | –
8 | CC(NC(=O)c1cc2ccccc2n1CC(=O)O)C(=O)N[C@H](C=O)CC(=O)O (stereo partly drawn) [Example 30, (3S)-3-[(1-(Carboxymethyl)Indole-2-Carbonyl)Alaninyl] Amino-4-Oxobutanoic Acid] | – | 1630 nM | > 50000 nM | –
9 | CC(NC(=O)c1cc2ccccc2n1CCC(=O)O)C(=O)NC(C=O)CC(=O)O [Example 33, (3S)-3-(1-(2′-Carboxyethyl)Indole-2-Carbonyl)Alaninyl] Amino-4-Oxobutanoic Acid] | – | 198 nM | > 50000 nM | –
10 | C=CCCn1c(C(=O)NC(C(=O)NC(C=O)CC(=O)O)C(C)C)cc2ccccc21 [Example 27, (3S)-3-[(1-(4′-Butenyl)indole-2-Carbonyl)Valinyl]Amino-4-Oxobutanoic Acid] | – | 313 nM | 1450 nM | –
11 | CC(C)C(NC(=O)c1cc2ccccc2n1C)C(=O)NC(C=O)CC(=O)O [Example 10, (3S)-3-[1-Methylindole-2-Carbonyl)Vainyl]Amino-4-Oxo-Butanoic Acid] | – | 531 nM | 2480 nM | –
12 | CC(C)C[C@H](NC(=O)c1cc2ccccc2n1C)C(=O)N[C@H](C=O)CC(=O)O [Example 13, (3S)-3-[(1-Methylindole-2-Carbonyl)Leucinyl]Amino-4-Oxo-Butanoic Acid] | – | 5520 nM | 5620 nM | –

Second part, led by results:

Row | IC50 ([1]; read-out: IC50 (mICE)) | IC50 [1, 4] | IC50 [2] | Compound | other results
13 | < 1000 nM | – | – | CC(C)C(NC(=O)c1cc2ccccc2n1CC(=O)O)C(=O)NC(CC(=O)O)C(=O)COc1c(F)c(F)cc(F)c1F (stereo not drawn) [Example 118, N-{[1-(carboxymethyl)-indole-2-cabonyl]valinyl}-3-amino-4-oxo-5-(2,3,5,6-tetrafluorophenyloxy)-pentanoic Acid] | –
14 | < 1000 nM | – | – | CC(C)C(NC(=O)c1cc2ccccc2n1C)C(=O)NC(CC(=O)O)C(=O)COc1c(F)c(F)cc(F)c1F (stereo not drawn) [Example 112, N-[(1-methyl-indole-2-cabonyl)valinyl]-3-amino-4-oxo-5-(2,3,5,6-tetrafluorophenyloxy)-pentanoic Acid] | –
15 | < 1000 nM | – | – | Cc1c(C(=O)NC(C(=O)NC(CC(=O)O)C(=O)COc2cc3ccccc3cc2-c2ncc[nH]2)C(C)C)n(C)c2ccccc12 (stereo not drawn) [Example 80, N-[(1,3-dimethyl-indole-2-cabonyl)valinyl]-3-amino-5-[3-(imidazol-2-yl)-naphthyl-2-oxy]-4-oxo-pentanoic Acid] | –
16 | < 1000 nM | – | – | CC(C)Cc1c(C(=O)NC(C(=O)NC(CC(=O)O)C(=O)COc2c(F)c(F)cc(F)c2F)C(C)C)n(C)c2ccccc12 (stereo not drawn) [Example 83, N-[(1-methyl-3-isobutyl-indole-2-cabonyl)valinyl]-3-amino-4-oxo-5-(2,3,5,6-tetrafluorophenyloxy)-pentanoic Acid] | –
17 | < 1000 nM | – | – | CC(C)Cc1c(C(=O)NC(CC2CCCCC2)C(=O)NC(CC(=O)O)C(=O)COc2cc(C(F)(F)F)nn2-c2ccccc2)n(C)c2ccccc12 (stereo not drawn) [Example 101, N-[(1-methyl-3-isobutyl-indole-2-cabonyl)cyclohexylalaninyl]-3-amino-4-oxo-5-[1-phenyl-3-(trifluoromethyl)pyrazol-5-yloxy]-pentanoic Acid] | –
18 | < 1000 nM | – | – | CC(C)Cc1c(C(=O)NC(CC(C)C)C(=O)NC(CC(=O)O)C(=O)COP(=O)(c2ccccc2)c2ccccc2)n(C)c2ccccc12 (stereo not drawn) [Example 94, N-[(1-methyl-3-isobutyl-indole-2-cabonyl)leucinyl]-3-amino-5-(diphenylphosphoroxy)-4-oxo-pentanoic Acid] | –
19 | < 1000 nM | – | – | CC(C)C(NC(=O)c1cc2cc(F)ccc2n1C)C(=O)NC(CC(=O)O)C(=O)COc1c(F)c(F)cc(F)c1F (stereo not drawn) [Example 115, N-[(5-fluoro-1-methyl-indole-2-cabonyl)valinyl]-3-amino-4-oxo-5-(2,3,5,6-tetrafluorophenyloxy)-pentanoic Acid] | –
20 | < 1000 nM | – | – | CC(C)Cc1c(C(=O)NC(CC(C)C)C(=O)NC(CC(=O)O)C(=O)COC(=O)c2c(Cl)cccc2Cl)n(C)c2ccccc12 (stereo not drawn) [Example 90, N-[(1-methyl-3-isobutyl-indole-2-cabonyl)leucinyl]-3-amino-5-(2,6-dichlorobenzoyl) oxy-4-oxo Pentanoic Acid] | –
21 | < 1000 nM | – | – | CC(C)Cc1c(C(=O)NC(CC(C)C)C(=O)NC(CC(=O)O)C(=O)COc2c(F)c(F)cc(F)c2F)n(C)c2ccccc12 (stereo not drawn) [Example 92, N-[(1-methyl-3-isobutyl-indole-2-cabonyl)leucinyl]-3-amino-4-oxo-5-(2,3,5,6-tetrafluorophenyloxy)-pentanoic Acid] | –
22 | < 1000 nM | – | – | CC(C)Cc1c(C(=O)NC(C(=O)NC(CC(=O)O)C(=O)COc2ccccc2F)C(C)C)n(C)c2ccccc12 (stereo not drawn) [Example 87, N-[(1-methyl-3-isobutyl-indole-2-cabonyl)valinyl]-3-amino-4-oxo-5-(2-fluorophenyloxy)-pentanoic Acid] | –
23 | < 1000 nM | – | – | CC(C)Cc1c(C(=O)NC(CC2CCCCC2)C(=O)NC(CC(=O)O)C(=O)COc2c(F)c(F)cc(F)c2F)n(C)c2ccccc12 (stereo not drawn) [Example 97, N-[(1-methyl-3-isobutyl-indole-2-cabonyl)cyclohexylalaninyl]-3-amino-4-oxo-5-(2,3,5,6-tetrafluorophenyloxy)-pentanoic Acid] | –
24 | < 1000 nM | – | – | Cc1c(C(=O)NC(C(=O)NC(CC(=O)O)C(=O)COc2c(F)c(F)cc(F)c2F)C(C)C)n(C)c2ccccc12 (stereo not drawn) [Example 109, N-[(1,3-dimethyl-indole-2-cabonyl)valinyl]-3-amino-4-oxo-5-(2,3,5,6-tetrafluorophenyloxy)-pentanoic Acid] | –
